# Reference: patent US20110065706A1, “Therapeutic Agents 812” (AstraZeneca AB, priority 2009, published 2011)
# Target: T1, human GPR119 (Homo sapiens, UniProt Q8TDV5)
# T1 construct: expressed in transfected cells; host or cells: HEK 293s
# T1 sequence (Q8TDV5 1-335): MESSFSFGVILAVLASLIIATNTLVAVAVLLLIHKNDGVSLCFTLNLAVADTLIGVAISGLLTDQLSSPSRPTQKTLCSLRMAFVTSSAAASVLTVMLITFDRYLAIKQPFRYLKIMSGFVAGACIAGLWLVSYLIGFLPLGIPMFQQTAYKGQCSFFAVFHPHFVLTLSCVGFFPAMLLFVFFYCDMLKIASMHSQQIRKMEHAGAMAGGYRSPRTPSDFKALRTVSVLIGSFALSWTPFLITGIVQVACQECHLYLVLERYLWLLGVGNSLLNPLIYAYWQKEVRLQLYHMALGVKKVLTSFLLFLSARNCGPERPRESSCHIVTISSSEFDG
# Assay: Cyclic AMP (HTRF cAMP) assay for human GPR119, Method A
# Assay type: cell-based
# Conditions: HEK293S, 0.75 h; Method A; HEK 293s cells over-expressing human GPR119; percent effect at top concentration 30 μM relative to maximum (50 μM Oleoylethanolamide) and minimum (1% DMSO) controls
row,activation at 30 µM,SMILES
1,23%,"CC(C)(C)OC(=O)N1CCN(c2ncc(OCc3ccc(C(=O)N4CCNCC4)cc3)cn2)CC1 [Example 50, tert-butyl 4-(5-(4-(piperazine-1-carbonyl)benz-yloxy)pyrimi-din-2-yl)piperazine-1-carboxylate]"
2,42%,"CN1CCN(C(=O)c2ccc(COc3cnc(N4CCN(C(=O)OC(C)(C)C)CC4)nc3)cc2)CC1 [Example 51, tert-butyl 4-(5-(4-(4-methylpiper-azine-1-carbonyl)benz-yloxy)pyrimi-din-2-yl)piperazine-1-carboxylate]"
3,20%,"CN1CCC(CNC(=O)c2ccc(COc3cnc(N4CCN(C(=O)OC(C)(C)C)CC4)nc3)cc2)CC1 [Example 52, tert-butyl 4-(5-(4-((1-methylpiper-idin-4-yl)methylcarba-moyl)benzyl-oxy)pyrimidin-2-yl)piperazine-1-carboxylate]"
4,44%,CC(C)(C)OC(=O)N1CCN(c2ncc(OCc3ccc(C(=O)N4CCOCC4)cc3)cn2)CC1 [Example 53]
5,51%,"Cc1cc(COc2cnc(N3CCN(C(=O)OC(C)(C)C)CC3)nc2)ccc1C(=O)NC(C)C [Example 54, Tert-butyl 4-(5-(4-(isopropylcarbamoyl)-3-methylbenzyloxy)pyrimidin-2-yl)piperazine-1-carboxylate]"
6,65%,"Cc1cc(COc2cnc(N3CCN(C(=O)OC(C)(C)C)CC3)nc2)ccc1C(=O)NC(C)(C)C [Example 55, tert-butyl 4-(5-(4-(tert-butylcarbamoyl)-3-methylbenzyl-oxy)pyrimidin-2-yl)piperazine-1-carboxylate]"
7,63%,"CC(C)OC(=O)N1CCN(c2ncc(OCc3ccc(S(C)(=O)=O)cc3)cn2)CC1 [Example 56, Isopropyl 4-(5-(4-(methylsulfonyl)benzyloxy)pyrimidin-2-yl)piperazine-1-carboxylate]"
8,69%,"CC(C)OC(=O)N1CCN(c2ncc(OCc3ccc(S(C)(=O)=O)cc3)cn2)[C@H](C)C1 [Example 57, (R)-isopropyl 3-methyl-4-(5-(4-(methylsulfonyl)benzyloxy)pyrimidin-2-yl)piperazine-1-carboxylate]"
9,154%,"CC(C)OC(=O)N1CCN(c2ncc(OCc3ccncc3C#N)cn2)CC1 [Example 58, isopropyl 4-(5-((3-cyanopyridin-4-yl)methoxy)pyrimidin-2-yl)piperazine-1-carboxylate]"
10,90%,"CC1(OC(=O)N2CCN(c3ncc(OCc4ccc(S(C)(=O)=O)cc4)cn3)CC2)CC1 [Example 60, 1-Methylcyclopropyl 4-(5-(4-(methylsulfonyl)benzyloxy)pyrimidin-2-yl)piperazine-1-carboxylate]"
11,91%,"C[C@@H]1CN(C(=O)OC2(C)CC2)CCN1c1ncc(OCc2ccc(S(C)(=O)=O)cc2)cn1 [Example 61, (R)-1-methylcyclo-propyl 3-methyl-4-(5-(4-(methylsulfonyl)benzyloxy)pyrimidin-2-yl)piperazine-1-carboxylate]"
12,208%,"CC1(OC(=O)N2CCN(c3ncc(OCc4ccncc4C#N)cn3)CC2)CC1 [Example 62, 1-methylcyclo-propyl 4-(5-((3-cyanopyridin-4-yl)methoxy)pyrimidin-2-yl)piperazine-1-carboxylate]"
13,52%,"CS(=O)(=O)c1ccc(COc2cnc(N3CCN(C(=O)OC4CCC4)CC3)nc2)cc1 [Example 63, Cyclobutyl 4-(5-(4-(methylsulfonyl)benzyloxy)pyrimidin-2-yl)piperazine-1-carboxylate]"
14,57%,"C[C@@H]1CN(C(=O)OC2CCC2)CCN1c1ncc(OCc2ccc(S(C)(=O)=O)cc2)cn1 [Example 64, (R)-cyclobutyl 3-methyl-4-(5-(4-(methylsulf-onyl)benzyl-oxy)pyrimi-din-2-yl)piperazine-1-carboxylate]"
15,164%,"N#Cc1cnccc1COc1cnc(N2CCN(C(=O)OC3CCC3)CC2)nc1 [Example 65, cyclobutyl 4-(5-((3-cyanopyri-din-4-yl)methoxy)pyrimidin-2-yl)piperazine-1-carboxylate]"
16,56%,"CC(OC(=O)N1CCN(c2ncc(OCc3ccc(S(C)(=O)=O)cc3)cn2)CC1)C(F)(F)F (stereo not shown) [Example 66, 1,1,1-Trifluoropropan-2-yl 4-(5-(4-(methylsulfonyl)benzyloxy)pyrimidin-2-yl)piperazine-1-carboxylate]"
17,60%,"CC(OC(=O)N1CCN(c2ncc(OCc3ccc(S(C)(=O)=O)cc3)cn2)[C@H](C)C1)C(F)(F)F (stereo partly drawn) [Example 67, (3R)-1,1,1-trifluoropropan-2-yl 3-methyl-4-(5-(4-(methylsulfonyl)benzyloxy)pyrim-idin-2-yl)piperazine-1-carboxylate]"
18,169%,"CC(OC(=O)N1CCN(c2ncc(OCc3ccncc3C#N)cn2)CC1)C(F)(F)F (stereo not shown) [Example 68, 1,1,1-trifluoropropan-2-yl 4-(5-((3-cyanopyridin-4-yl)methoxy)pyrim-idin-2-yl)piperazine-1-carboxylate]"
19,73%,"C[C@@H]1CN(C(=O)OC(C)(C)C#N)CCN1c1ncc(OCc2ccc(S(C)(=O)=O)cc2)cn1 [Example 71, (R)-2-cyanopropan-2-yl 3-methyl-4-(5-(4-(methylsulfonyl)benzyloxy)pyrimidin-2-yl)piperazine-1-carboxylate]"
20,31%,"CS(=O)(=O)c1ccc(COc2cnc(N3CCN(C(=O)OC4COC4)CC3)nc2)cc1 [Example 75, Oxetan-3-yl 4-(5-(4-(methylsulfonyl)benzyloxy)pyrimidin-2-yl)piperazine-1-carboxylate]"
21,30%,"C[C@@H]1CN(C(=O)OC2COC2)CCN1c1ncc(OCc2ccc(S(C)(=O)=O)cc2)cn1 [Example 76, (R)-oxetan-3-yl 3-methyl-4-(5-(4-(methylsulfonyl)benzyloxy)pyrimidin-2-yl)piperazine-1-carboxylate]"
22,92%,"N#Cc1cnccc1COc1cnc(N2CCN(C(=O)OC3COC3)CC2)nc1 [Example 77, oxetan-3-yl 4-(5-((3-cyanopyridin-4-yl)methoxy)pyrimidin-2-yl)piperazine-1-carboxylate]"
23,8%,"C[C@@H]1CN(C(=O)OC2CCOC2)CCN1c1ncc(OCc2ccc(S(C)(=O)=O)cc2)cn1 (stereo partly drawn) [Example 78, (3R)-Tetrahydrofuran-3-yl 3-methyl-4-(5-(4-(methylsulfonyl)benzyloxy)pyrimidin-2-yl)piperazine-1-carboxylate]"
24,37%,"CC1(OC(=O)N2CCN(c3ncc(OCc4ccc(S(C)(=O)=O)cc4)cn3)CC2)COC1 [Example 79, 3-Methyloxetan-3-yl 4-(5-(4-(methylsulfonyl)benzyloxy)pyrimidin-2-yl)piperazine-1-carboxylate]"

row,SMILES,activation at 30 µM
1,"CC(C)(C#N)OC(=O)N1CCN(c2ncc(OCc3ccc(S(C)(=O)=O)cc3)cn2)CC1 [Example 70, 2-Cyanopropan-2-yl 4-(5-(4-(methylsulfonyl)benzyloxy)pyrimidin-2-yl)piperazine-1-carboxylate]",28%
2,"CC(C)(C#N)OC(=O)N1CCN(c2ncc(OCc3ccncc3C#N)cn2)CC1 [Example 72, 2-cyanopropan-2-yl 4-(5-((3-cyanopyridin-4-yl)methoxy)pyrimidin-2-yl)piperazine-1-carboxylate]",173%

# Same assay, conditions: Method A; HEK 293s cells over-expressing human GPR119; midpoint of dose response curve; selected examples
row,EC50,SMILES
1,0.116 µM,"CC1(OC(=O)N2CCN(c3ncc(OCc4ccncc4C#N)cn3)CC2)CC1 [Example 62, 1-methylcyclo-propyl 4-(5-((3-cyanopyridin-4-yl)methoxy)pyrimidin-2-yl)piperazine-1-carboxylate]"
2,0.039 µM,"CC(OC(=O)N1CCN(c2ncc(OCc3ccc(S(C)(=O)=O)cc3)cn2)[C@H](C)C1)C(F)(F)F (stereo partly drawn) [Example 67, (3R)-1,1,1-trifluoropropan-2-yl 3-methyl-4-(5-(4-(methylsulfonyl)benzyloxy)pyrim-idin-2-yl)piperazine-1-carboxylate]"
